Reference: patent US9849130B2 (KamTek, Inc., priority 2014, dated 2017)
Values after ≈ are worked out from the molar mass of the structure shown. Where two headings read alike, the source gives them in different places.

Key:
[1] = tested on: Enterococcus faecalis; assay: MIC by microdilution in Mueller-Hinton broth against Enterococcus faecalis strains; assay type: cell-based; settings: Enterococcus faecalis
[2] = tested on: Lactobacillus strains; assay: MIC against Lactobacillus strains; assay type: cell-based, Lactobacillus spp.; settings: for MIC: broth microdilution, BHI with 0.02% Tween 80, pH 6.0, read-out: MIC
[3] = tested on: Fusobacterium; assay: MIC by microdilution in Brucella broth against Fusobacterium; assay type: cell-based, Fusobacterium spp.; settings: read-out: MIC
[4] = tested on: C. difficile VPI10463; settings: Clostridioides difficile, −fecal extract, C. difficile VPI10463
[5] = tested on: Bacteroides Strains; assay: MIC by microdilution in Brucella broth against Bacteroides strains; assay type: cell-based, Bacteroides spp.
[6] = tested on: Lachnospiraceae and related bacterial strains; assay: MIC against Lachnospiraceae and related bacterial strains; assay type: cell-based, Lachnospiraceae spp.; settings: for MIC: broth microdilution, brucella broth, read-out: MIC
[7] = tested on: Enterococci faecium; assay: MIC by microdilution in Mueller-Hinton broth against Enterococci faecium strains; assay type: cell-based, Enterococcus faecium; settings: Enterococcus faecium, Mueller-Hinton broth, read-out: MIC
[8] = tested on: Bifidobacterium strains; assay: MIC by microdilution in BHI broth against Bifidobacterium strains; assay type: cell-based, Bifidobacterium spp.; settings: BHI broth, read-out: MIC
[9] = tested on: C. perfringens MH310; assay: microbe, parasite or virus in culture; assay type: cell-based; settings: Clostridium perfringens, MH310, C. perfringens MH310
[10] = tested on: C. difficile; assay: Minimum bactericidal concentration (MBC) against C. difficile; assay type: cell-based, Clostridium difficile; settings: Clostridioides difficile, CD strain VPI 10463; BHI; Table 19 formulations; read-out: MBC
[11] = tested on: Clostridium difficile (CD) strains; assay: microbe, parasite or virus in culture; assay type: cell-based; settings: Clostridioides difficile; for MIC: BAA1805, CD strain BAA1805 (hyper-virulent strain BI/NAP1/027)
[12] = tested on: CD strains; assay: In vitro activity of CFM + additional antimicrobial agent against CD (MIC alone/combination, FIC, ΣFIC); assay type: cell-based, Clostridium difficile; settings: CFM + MET; for MIC: Clostridioides difficile, read-out: MIC alone
[13] = tested on: Escherichia coli strains; assay: MIC by microdilution in Mueller-Hinton broth against Escherichia coli strains; assay type: cell-based; settings: Escherichia coli, Mueller-Hinton broth, read-out: MIC
[14] = Test 14, CD strain BAA1805 (BI/NAP1/027)

Cc1ncc([N+](=O)[O-])n1CCO [MET, metronidazole]
MIC ([1]; E. faecalis NR 31884, read-out: MIC): > 32 µg/mL
MIC ([1]; E. faecalis NR 31885, read-out: MIC): > 32 µg/mL
MIC ([1]; E. faecalis NR 31886, read-out: MIC): > 32 µg/mL
MIC ([1]; E. faecalis NR 31887, read-out: MIC): > 32 µg/mL
MIC ([1]; E. faecalis NR 31888, read-out: MIC): > 32 µg/mL
MIC ([2]; Lactobacillus, pH 6, Lactobacillus jhonsonii HM-643): > 32 µg/mL
MIC ([2]; Lactobacillus, pH 6, Lactobacillus sp. HM-228): > 32 µg/mL
MIC ([2]; Lactobacillus, pH 6, Lactobacillus sp. HM-478): > 32 µg/mL
MIC ([2]; pH 6, Lactobacillus crispatus HM-637): > 32 µg/mL
MIC ([2]; pH 6, Lactobacillus gasseri HM-104): > 32 µg/mL
MIC ([2]; pH 6, Lactobacillus iners HM-126): > 32 µg/mL
MIC ([2]; pH 6, Lactobacillus jensenii HM-105): > 32 µg/mL
MIC ([2]; pH 6, Lactobacillus reuteri HM-102): > 32 µg/mL
MIC ([2]; pH 6, Lactobacillus rhamnosus HM-106): > 32 µg/mL
MIC ([2]; pH 6, Lactobacillus vaginalis HM-405): > 32 µg/mL
in vitro activity against Lactobacillus spp. (in words) ([2]; ten strains tested): essentially inactive
MIC ([3]; F. nucleatum HM-75, Brucella broth): 0.062 µg/mL (≈ 0.362 µM)
MIC ([3]; F. nucleatum HM-993, Brucella broth): ≤ 0.031 µg/mL
MIC ([3]; F. nucleatum HM-996, Brucella broth): 0.5 µg/mL (≈ 2.92 µM)
MIC ([3]; F. nucleatum HM-997, Brucella broth): 0.25 µg/mL (≈ 1.46 µM)
MIC ([3]; Fusobacterium, Fusobacterium sp. HM 57, Brucella broth): 0.5 µg/mL (≈ 2.92 µM)
MIC ([3]; Fusobacterium, Fusobacterium spp. strains of Table 12 (all strains)): 0.031 to 0.5 µg/mL (≈ 0.181 to 2.92 µM)
MIC ([4]; VPI10463, Expt. 1): 0.062 µg/mL (≈ 0.362 µM)
MIC ([4]; VPI10463, Expt. 2): 0.062 µg/mL (≈ 0.362 µM)
MIC ([5]; B. caccae HM728, read-out: MIC): 0.25 µg/mL (≈ 1.46 µM)
MIC ([5]; B. eggerthii HM210, read-out: MIC): 0.5 µg/mL (≈ 2.92 µM)
MIC ([5]; B. fragilis HM709, read-out: MIC): 1 µg/mL (≈ 5.84 µM)
MIC ([5]; B. fragilis HM710, read-out: MIC): 0.5 µg/mL (≈ 2.92 µM)
MIC ([5]; B. fragilis HM714, read-out: MIC): 1 µg/mL (≈ 5.84 µM)
MIC ([5]; B. ovatus HM222, read-out: MIC): 0.5 µg/mL (≈ 2.92 µM)
MIC ([5]; B. stercoris HM1036, read-out: MIC): 0.25 µg/mL (≈ 1.46 µM)
MIC ([5]; Bacteroides, B. spp. HM18): 4 µg/mL (≈ 23.4 µM)
MIC ([5]; Bacteroides, B. spp. HM19): 1 µg/mL (≈ 5.84 µM)
MIC ([5]; Bacteroides, B. spp. HM22): 0.5 µg/mL (≈ 2.92 µM)
MIC ([5]; Bacteroides, B. spp. HM23, read-out: MIC): 0.25 µg/mL (≈ 1.46 µM)
MIC ([5]; Bacteroides, B. spp. HM27): 0.5 µg/mL (≈ 2.92 µM)
MIC ([5]; Bacteroides, B. spp. HM28): 2 µg/mL (≈ 11.7 µM)
MIC ([5]; Bacteroides, B. spp. HM58): 2 µg/mL (≈ 11.7 µM)
MIC ([6]; Clostridiales bacterium, Clostridiales bacterium HM-84): 0.25 µg/mL (≈ 1.46 µM)
MIC ([6]; Clostridiales bacterium, Clostridiales bacterium HM-182): ≤ 0.031 µg/mL
MIC ([6]; Eubacterium sp. HM-178): 1 µg/mL (≈ 5.84 µM)
MIC ([6]; Lachnospiraceae sp. HM-7): 0.25 µg/mL (≈ 1.46 µM)
MIC ([6]; Lachnospiraceae sp. HM-150): 0.25 µg/mL (≈ 1.46 µM)
MIC ([6]; Lachnospiraceae sp. HM-153): 0.062 µg/mL (≈ 0.362 µM)
MIC ([6]; Lachnospiraceae sp. HM-157): 0.25 µg/mL (≈ 1.46 µM)
MIC ([6]; Lachnospiraceae sp. HM-480): 0.5 µg/mL (≈ 2.92 µM)
MIC ([6]; Lachnospiraceae sp. HM-558): 0.5 µg/mL (≈ 2.92 µM)
MIC ([6]; Lachnospiraceae sp. HM-768): 0.5 µg/mL (≈ 2.92 µM)
MIC ([6]; Lachnospiraceae sp. HM-868): 16 µg/mL (≈ 93.5 µM)
MIC ([6]; Peptostreptococcaceae sp. HM-766): 0.5 µg/mL (≈ 2.92 µM)
susceptibility of Lachnospiraceae and related organisms (in words) ([6]; most of the members of this family): susceptible
MIC ([7]; E. faecium NR 31903): > 32 µg/mL
MIC ([7]; E. faecium NR 31909): > 32 µg/mL
MIC ([7]; E. faecium NR 31912): > 32 µg/mL
MIC ([7]; E. faecium NR 31915): > 32 µg/mL
MIC ([7]; E. faecium NR 31916): > 32 µg/mL
MIC ([8]; Bifidobacterium adolescentis HM-633): > 32 µg/mL
MIC ([8]; Bifidobacterium breve HM-411): > 32 µg/mL
MIC ([8]; Bifidobacterium breve HM-412): > 32 µg/mL
MIC ([8]; Bifidobacterium breve HM-856): > 32 µg/mL
MIC ([8]; Bifidobacterium breve HM-1120): 0.5 µg/mL (≈ 2.92 µM)
MIC ([8]; Bifidobacterium longum HM-845): 2 µg/mL (≈ 11.7 µM)
MIC ([8]; Bifidobacterium longum HM-846): 2 µg/mL (≈ 11.7 µM)
MIC ([8]; Bifidobacterium longum HM-847): 1 µg/mL (≈ 5.84 µM)
MIC ([8]; Bifidobacterium, Bifidobacterium sp. HM-30): > 32 µg/mL
MIC ([8]; Bifidobacterium, Bifidobacterium sp. HM-868): 16 µg/mL (≈ 93.5 µM)
MIC ([9]; BB): 2 µg/mL (≈ 11.7 µM)
MIC ([9]; BHI): 1 µg/mL (≈ 5.84 µM)
MBC [10]: 0.25 µg/mL (≈ 1.46 µM)
MIC ([11]; BB): 8 µg/mL (≈ 46.7 µM)
MIC ([11]; BHI): 1 µg/mL (≈ 5.84 µM)
MIC50 ([11]; n = 37, read-out: MIC50): 1 µg/mL (≈ 5.84 µM)
MIC90 ([11]; n = 37, read-out: MIC90): 4 µg/mL (≈ 23.4 µM)
MIC ([12]; BAA1805, Test 14, CD strain BAA1805 (BI/NAP1/027)): 16 µg/mL
MIC ([12]; BAA1805, Test 15, CD strain BAA1805 (BI/NAP1/027)): 32 µg/mL
MIC ([12]; BAA1805, Test 17, CD strain BAA1805 (BI/NAP1/027)): 32 µg/mL
MIC ([12]; Test 8, CD strain NR32885): 2 µg/mL
MIC ([12]; Test 10, CD strain NR32885): 1 µg/mL
MIC ([12]; Test 12, CD strain NR32885): 1 µg/mL
MIC ([12]; Test 19, CD strain NR32888): 2 µg/mL
MIC ([12]; Test 21, CD strain NR32888): 2 µg/mL
FIC ([12]; Test 3, CD strain VPI 10463): 0.5
MIC combination ([12]; Test 3, CD strain VPI 10463): 0.062 µg/mL
FIC ([12]; Test 4, CD strain VPI 10463): 0.5
MIC combination ([12]; Test 4, CD strain VPI 10463): 0.062 µg/mL
MIC combination ([12]; Test 8, CD strain NR32885): 0.25 µg/mL
FIC ([12]; Test 10, CD strain NR32885): 0.25
MIC combination ([12]; Test 10, CD strain NR32885): 0.25 µg/mL
FIC ([12]; Test 12, CD strain NR32885): 0.25
MIC combination ([12]; Test 12, CD strain NR32885): 0.25 µg/mL
FIC [12, 14]: 0.015
MIC combination [12, 14]: 0.25 µg/mL
MIC combination ([12]; Test 15, CD strain BAA1805 (BI/NAP1/027)): 4 µg/mL
MIC combination ([12]; Test 17, CD strain BAA1805 (BI/NAP1/027)): 4 µg/mL
FIC ([12]; Test 19, CD strain NR32888): 0.062
FIC ([12]; Test 21, CD strain NR32888): 0.25
MIC combination ([12]; Test 21, CD strain NR32888): 0.5 µg/mL
MIC ([13]; Escherichia coli strain NR 6): > 32 µg/mL
MIC ([13]; Escherichia coli strain NR 8): > 32 µg/mL
MIC ([13]; Escherichia coli strain NR 96): > 32 µg/mL
MIC ([13]; Escherichia coli strain NR 104): > 32 µg/mL
MIC ([13]; Escherichia coli strain NR 17626): > 32 µg/mL
MIC ([13]; Escherichia coli strain NR 17627): > 32 µg/mL
MIC ([13]; Escherichia coli strain NR 17633): > 32 µg/mL
MIC ([13]; Escherichia coli strain NR 17647): > 32 µg/mL
MIC ([13]; Escherichia coli strain NR 17650): > 32 µg/mL
MIC ([13]; Escherichia coli strain NR 17661): > 32 µg/mL
